Measured values as given in patent publication US6221914A, “Sulfonamide bridging compounds that inhibit tryptase activity” (Array Biopharma Inc., priority 1998, dated 2001).

Tests used:
Assay type in all cases: biochemical
[1] = target: T1, Human Neutrophil Cathepsin G (Homo sapiens, UniProt P08311); assay: Ki determination, human neutrophil cathepsin G (N-Suc-Ala-Ala-Pro-Phe-pNA); conditions: 625 mM Tris-HCl, pH 7.5, 2.5 mM MgCl2, 0.125% Brij 35; read-out: Experimentally Determined Ki, Cathepsin G
T1 construct: from tissue; host or cells: human neutrophils
T1 sequence (P08311 21-255): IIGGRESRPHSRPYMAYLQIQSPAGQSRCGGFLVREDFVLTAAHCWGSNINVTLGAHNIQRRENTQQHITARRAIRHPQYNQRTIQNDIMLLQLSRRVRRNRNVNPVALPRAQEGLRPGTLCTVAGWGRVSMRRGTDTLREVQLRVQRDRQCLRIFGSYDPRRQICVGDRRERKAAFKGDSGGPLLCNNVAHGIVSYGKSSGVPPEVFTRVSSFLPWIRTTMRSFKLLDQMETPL
Method: (§1) Protease inhibition was assayed according to published procedures with minor modifications using various proteases and specific chromogenic peptide p-nitroanilide substrates. Assays were performed in Costar ultra-low cluster 96-well microtiter plate (Costar Corning Corp., Cambridge Mass.). Each protease was incubated with various concentrations of the test compound for 15 min. at 37° C. or as otherwise indicated, in specific assay buffer, and the residual activity was then measured by addition of the substrate. p-Nitroaniline produced by the proteolysis was determined by measuring the change in absorbance at 405 nm on a SpectraMAX 340 plate reader (Molecular devices, Sunnyvale, Calif.).
(§2) 1. The inhibition constant, Ki is calculated from individual data points using the equation for a tight-binding inhibitor (See Beith, "Proteinase Inhibitors-Proceedings of 2nd Int. Res. Conference", Fritz, et al. eds, New York, p.4463-4469 (1974)):
(§3) vi /vo [((Ki '+[I]+[E]o)^2 -4 [I]o
(§4) [E]o)^1/2 (Ki '+[I]o -[E]o)]/2[E]o
(§5) where Ki ' is apparent inhibition constant; vi and vo are the inhibited and uninhibited rates, respectively; [I]o and [E]o are the total concentrations of inhibitor and enzyme, respectively.
(§6) [note: [E]o is determined by active site titration of enzyme]
(§7) The Ki values are obtained by correcting Ki ' values for the effect of substrate concentration according to: [formula]
(§8) 2. Other inhibition data (Ki >>[E]o), the Ki is calculated from using the equations for a competitive inhibitor: [formula]
Human Neutrophil Cathepsin G activity was determined by using N-Suc-Ala-Ala-Pro-Phe-pNA in 625 mM Tris-HCl, pH 7.5, 2.5 mM MgCl2, 0.125% Brij 35 (See Groutas et al., Arch. Biochem. Biophys. 294, 144-146 (1992)).
(§9) The inhibition constant (Ki) of the test compounds against each proteolytic enzyme was determined according to Zitnik et al., Biochem. Biophys. Res. Commun. 232, 687-697 (1997)).

[2] = target: T2, Human plasma thrombin (Homo sapiens, UniProt P00734); assay: Ki determination, human plasma thrombin (H-D-Phe-Pip-Arg-pNA); conditions: 50 mM Tris-HCl, pH 8.3, 100 mM NaCl, 1% BSA; read-out: Experimentally Determined Ki, Thrombin
T2 construct: from tissue; host or cells: human plasma
Method: as §1, §2, §3, §4, §5, §6, §7, §8
Human plasma thrombin activity was determined by using H-D-Phe-Pip-Arg-pNA in 50 mM Tris-HCl, pH 8.3, 100 mM NaCl, 1% BSA (See Lottenberg, et al. Meth. Enzymol. 80, 341-361 (1981)).
as §9

[3] = target: T3, Human Neutrophil elastase (Homo sapiens, UniProt P08246); assay: Ki determination, human neutrophil elastase (pyroGlu-Pro-Val-pNA); conditions: 100 mM Tris-HCl, pH 8.3, 0.96 M NaCl, 1% BSA; read-out: Experimentally Determined Ki, Elastase
T3 construct: from tissue; host or cells: human neutrophils
T3 sequence (P08246 30-267): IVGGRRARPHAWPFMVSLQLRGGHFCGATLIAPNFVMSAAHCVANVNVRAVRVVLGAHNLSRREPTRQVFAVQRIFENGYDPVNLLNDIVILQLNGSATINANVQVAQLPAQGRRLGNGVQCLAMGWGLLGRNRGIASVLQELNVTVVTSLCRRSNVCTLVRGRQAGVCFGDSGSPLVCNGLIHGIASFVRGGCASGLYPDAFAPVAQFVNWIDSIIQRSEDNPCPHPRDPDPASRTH
Method: as §1, §2, §3, §4, §5, §6, §7, §8
Human Neutrophil elastase activity was determined by using pyroGlu-Pro-Val-pNA in 100 mM Tris-HCl, pH 8.3, 0.96 M NaCl, 1% BSA (See Kramps, et al. Scand. J. Clin. Lab. Invest. 43, 427-432 (1983)).
as §9

[4] = target: T4, Human plasma plasmin (Homo sapiens, UniProt P00747); assay: Ki determination, human plasma plasmin (Tosyl-Gly-Pro-Lys-pNA); conditions: 100 mM Tris-HCl, pH 7.4, 100 mM NaCl, 0.05% Triton X-100; read-out: Experimentally Determined Ki, Plasmin
T4 construct: from tissue; host or cells: human plasma
Method: as §1, §2, §3, §4, §5, §6, §7, §8
Human plasma plasmin activity was determined by using Tosyl-Gly-Pro-Lys-pNAin 100 mM Tris-HCl, pH 7.4, 100 mM NaCl, 0.05% Triton X-100 (See Lottenberg, et al., Meth. Enzymol. 80, 341-361 (1981)).
as §9

[5] = target: Human lung tryptase; assay: Ki determination, human lung tryptase (Tosyl-Gly-Pro-Arg-pNA substrate); conditions: 50 mM Tris-HCl pH 8.0, 37° C., 1 nM tryptase, 320 μM GPR-pNA; read-out: Experimentally Determined Ki, Tryptase
Method: as §1, §2, §3, §4, §5, §6, §7, §8
Human lung tryptase purchased from Cortex Biochem (San Leandro, Calif.) was purified further on a Superdex 200 gel-filtration column. The active-site concentration of the enzyme was determined by spectrophotometric titration with 4-nitrophenyl 4'-guanidinobenzoate according to Schwartz, et al., J. Immunol., 114, 2304-2311 (1990). Tryptase activity was measured according to the procedures of Schwartz, et al., J. Biol. Chem., 261, 7372-7379 (1986) (See also, Schwartz, L. B., Methods In Enzymology, 244, 88 (1994)) with minor modifications, using Tosyl-Gly-Pro-Arg-p-nitroanilide ("GPR-pNA", Sigma Chemical Co., St. Louis, Mo., T-1637) as a chromogenic substrate. The reaction was performed in 50 mM Tris-HCl, pH 8.0, containing 150 mM NaCl and 0.02% Triton X-100 at 37° C. in Costar ultra-low cluster 96-well microtiter plates (Costar Corning Corp., Cambridge, Mass.). The amount of pNA produced by tryptase was determined by measuring the change in absorbance at 405 nm on a SpectraMAX 340 plate reader (Molecular devices, Sunnyvale, Calif.). The Km for the substrate was determined by Lineweaver-Burk analysis from initial velocities of substrate hydrolysis. The inhibition assay was carried out in a total volume of 200 μL. Tryptase (30 μL- final concentration 1 nM) was incubated with various concentrations of sample compound (50 μL) to be tested in the above assay buffer for 5 min. The reaction was started by the addition of substrate GPR-pNA (40 μL-final concentration 320 μM), and the residual activity was measured after 15 min. of incubation. The inhibition constant, Ki, was determined by fitting the inhibition data to a two-site competitive binding equation using data analysis program GraphPad PRISM (GraphPad Software, Inc., San Diego, Calif.).
as §9

[6] = target: T5, Human plasma factor Xa (Homo sapiens, UniProt P00742); assay: Ki determination, human plasma factor Xa (N-Benzoyl-Ile-Glu-Gly-Arg-pNA); conditions: 50 mM Tris-HCl, pH 7.8, 200 mM NaCl, 0.05% BSA; read-out: Experimentally Determined Ki, Factor Xa
T5 construct: from tissue; host or cells: human plasma
Method: as §1, §2, §3, §4, §5, §6, §7, §8
Human plasma factor Xa activity was determined by using N-Benzoyl-Ile-Glu-Gly-Arg-pNA in 50 mM Tris-HCl, pH 7.8, 200 mM NaCl, 0.05% BSA (See Lottenberg, et al. Meth. Enzymol. 80, 341-361 (1981)).
as §9

[7] = target: T6, Bovine pancreatic Trypsin (Bos taurus, UniProt P00760); assay: Ki determination, bovine pancreatic trypsin (N-a-Benzoyl-L-Arg-pNA); conditions: 50 mM Tris-HCl, pH 8.2, 20 mM CaCl2; read-out: Experimentally Determined Ki, Trypsin
T6 construct: from tissue; host or cells: bovine pancreas
T6 sequence (P00760 24-246): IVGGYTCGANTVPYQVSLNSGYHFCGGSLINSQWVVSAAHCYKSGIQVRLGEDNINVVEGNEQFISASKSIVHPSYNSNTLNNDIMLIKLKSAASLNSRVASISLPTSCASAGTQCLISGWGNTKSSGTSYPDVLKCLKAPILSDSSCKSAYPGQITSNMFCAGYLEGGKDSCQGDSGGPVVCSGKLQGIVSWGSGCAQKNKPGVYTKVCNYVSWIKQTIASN
Method: as §1, §2, §3, §4, §5, §6, §7, §8
Bovine pancreatic Trypsin (TPCK-treated) activity was determined by using N-a-Benzoyl-L-Arg-pNA in 50 mM Tris-HCl, pH 8.2, 20 mM CaCl2 (See Somorin, et al., J. Biochem. 85, 157-162 (1979)).
as §9

[8] = target: T7, Bovine Pancreatic Chymotrypsin (Bos taurus, UniProt P00766); assay: Ki determination, bovine pancreatic chymotrypsin (N-Suc-Ala-Ala-Pro-Phe-pNA); conditions: 100 mM Tris-HCl, pH 7.8, 10 mM CaCl2; read-out: Experimentally Determined Ki, Chymotrypsin
T7 construct: from tissue; host or cells: bovine pancreas
Method: as §1, §2, §3, §4, §5, §6, §7, §8
Bovine Pancreatic Chymotrypsin activity was determined by using N-Suc-Ala-Ala-Pro-Phe-pNA in 100 mM Tris-HCl, pH 7.8, 10 mM CaCl2 (See Delmar, et al., J. Biochem. 85, 157-162 (1979)).
as §9

[9] = target: T8, Human plasma kallikrein (Homo sapiens, UniProt P03952); assay: Ki determination, human plasma kallikrein (H-D-Prolyl-Phe-Arg-pNA); conditions: 50 mM Tris-HCl, pH 7.8, 200 mM NaCl, 0.05% BSA; read-out: Experimentally Determined Ki, Plasma Kallikrein
T8 construct: from tissue; host or cells: human plasma
Method: as §1, §2, §3, §4, §5, §6, §7, §8
(§10) I. Human Plasma and r-Tissue Kallikrein
(§11) Human plasma and r-tissue kallikrein activity were determined in 50 mM Tris-HCl, pH 7.8, 200 mM NaCl, 0.05% BSA by using H-D-Prolyl-Phe-Arg-pNA and DL-Val-Leu-Arg-pNA, respectively (See Lottenberg, et al., Meth. Enzymol. 80, 341-361 (1981)).
as §9

[10] = target: r-tissue kallikrein (Homo sapiens, UniProt P06870); assay: Ki determination, r-tissue kallikrein (DL-Val-Leu-Arg-pNA); conditions: 50 mM Tris-HCl, pH 7.8, 200 mM NaCl, 0.05% BSA; read-out: Experimentally Determined Ki, Tissue Kallikrein
Method: as §1, §2, §3, §4, §5, §6, §7, §8, §10, §11, §9

T5 sequence (P00742 235-488 limits assumed): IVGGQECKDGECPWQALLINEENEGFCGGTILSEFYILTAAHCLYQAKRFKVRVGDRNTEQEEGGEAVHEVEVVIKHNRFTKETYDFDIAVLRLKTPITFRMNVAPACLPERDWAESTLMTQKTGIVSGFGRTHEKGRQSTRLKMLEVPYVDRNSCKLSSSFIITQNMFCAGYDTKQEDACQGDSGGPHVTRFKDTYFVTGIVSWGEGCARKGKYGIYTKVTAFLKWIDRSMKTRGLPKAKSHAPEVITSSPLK
T5 sequence (P00742 41-179 partner limits assumed): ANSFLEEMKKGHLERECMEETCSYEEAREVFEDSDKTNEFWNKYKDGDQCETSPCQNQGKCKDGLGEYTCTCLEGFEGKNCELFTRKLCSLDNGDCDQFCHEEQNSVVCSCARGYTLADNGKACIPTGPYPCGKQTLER
T4 sequence (P00747 581-810 limits assumed): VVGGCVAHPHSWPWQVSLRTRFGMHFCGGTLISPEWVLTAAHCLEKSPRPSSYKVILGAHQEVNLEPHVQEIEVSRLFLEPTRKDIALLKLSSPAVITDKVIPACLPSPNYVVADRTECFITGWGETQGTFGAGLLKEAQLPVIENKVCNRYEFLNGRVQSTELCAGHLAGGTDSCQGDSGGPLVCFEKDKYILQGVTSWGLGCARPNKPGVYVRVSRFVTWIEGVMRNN
T4 sequence (P00747 97-580 partner limits assumed): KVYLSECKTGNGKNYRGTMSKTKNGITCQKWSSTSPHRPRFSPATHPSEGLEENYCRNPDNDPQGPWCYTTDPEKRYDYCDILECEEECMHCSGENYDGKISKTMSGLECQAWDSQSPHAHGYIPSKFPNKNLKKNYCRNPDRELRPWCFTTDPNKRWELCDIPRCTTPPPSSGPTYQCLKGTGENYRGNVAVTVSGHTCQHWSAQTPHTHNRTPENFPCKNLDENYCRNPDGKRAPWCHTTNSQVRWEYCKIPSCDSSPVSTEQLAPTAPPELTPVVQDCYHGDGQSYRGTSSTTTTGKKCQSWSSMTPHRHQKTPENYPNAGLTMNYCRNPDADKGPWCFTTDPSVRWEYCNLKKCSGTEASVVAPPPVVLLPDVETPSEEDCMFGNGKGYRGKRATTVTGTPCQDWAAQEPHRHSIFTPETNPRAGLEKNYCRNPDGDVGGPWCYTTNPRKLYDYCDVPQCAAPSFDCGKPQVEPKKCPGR
Sequence of r-tissue kallikrein (P06870 25-262): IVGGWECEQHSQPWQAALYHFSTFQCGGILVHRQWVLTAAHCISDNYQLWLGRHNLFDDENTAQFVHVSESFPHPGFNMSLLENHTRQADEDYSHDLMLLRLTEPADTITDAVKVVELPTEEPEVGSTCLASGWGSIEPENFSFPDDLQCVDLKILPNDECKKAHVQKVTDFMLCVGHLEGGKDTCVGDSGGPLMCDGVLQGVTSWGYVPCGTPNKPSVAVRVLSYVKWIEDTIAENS
T8 sequence (P03952 391-638 limits assumed): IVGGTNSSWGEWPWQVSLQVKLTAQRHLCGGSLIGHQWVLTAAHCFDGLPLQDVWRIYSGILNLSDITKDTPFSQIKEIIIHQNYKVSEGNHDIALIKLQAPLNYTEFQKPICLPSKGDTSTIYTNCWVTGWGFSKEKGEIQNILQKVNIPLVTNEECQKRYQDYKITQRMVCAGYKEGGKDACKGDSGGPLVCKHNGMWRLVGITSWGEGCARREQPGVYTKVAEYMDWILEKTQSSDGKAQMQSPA
T8 sequence (P03952 20-390 partner limits assumed): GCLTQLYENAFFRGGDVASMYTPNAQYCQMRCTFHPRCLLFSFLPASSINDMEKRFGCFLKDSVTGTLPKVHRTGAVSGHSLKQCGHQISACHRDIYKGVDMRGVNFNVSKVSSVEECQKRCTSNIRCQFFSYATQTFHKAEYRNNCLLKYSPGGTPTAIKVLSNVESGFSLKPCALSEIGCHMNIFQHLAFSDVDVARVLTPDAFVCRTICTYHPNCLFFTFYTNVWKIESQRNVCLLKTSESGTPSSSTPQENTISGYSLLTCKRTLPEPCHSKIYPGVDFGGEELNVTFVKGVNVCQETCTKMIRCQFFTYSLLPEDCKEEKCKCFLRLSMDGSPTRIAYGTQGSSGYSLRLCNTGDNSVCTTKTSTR

Row | Structure (SMILES) | Ki [1] | Ki [2] | Ki [3] | Ki [4] | Ki [5] | Ki [6] | Ki [7] | Ki [8] | Ki [9] | Ki [10]
1 | N=C(N)c1ccc(S(=O)(=O)NCc2ccc(OCCCCCOc3ccc(CNS(=O)(=O)c4ccc(C(=N)N)cc4)cc3)cc2)cc1 [Example 42, 1,5-Bis-{4-[(4-carbamimidoyl-benzenesulfonylamino)-methyl]-phenoxy}-pentane] | > 100 µM | > 100 µM | > 100 µM | > 100 µM | 0.25 µM | 47 µM |  |  |  | 
2 | N=C(N)c1ccc(S(=O)(=O)NCc2ccc(OCCCCCCOc3ccc(CNS(=O)(=O)c4ccc(C(=N)N)cc4)cc3)cc2)cc1 [Example 44, 1,6-Bis-{4-[(4-carbamimidoyl-benzenesulfonylamino)-methyl]-phenoxy}-hexane] |  |  |  |  | 3.2 µM |  | 8 µM |  |  | 
3 | N=C(N)c1ccc(S(=O)(=O)NCc2ccc(OCCCCCCCOc3ccc(CNS(=O)(=O)c4ccc(C(=N)N)cc4)cc3)cc2)cc1 [Example 46, 1,7-Bis-{4-[(4-carbamimidoyl-benzenesulfonylamino)-methyl]-phenoxy}-heptane] |  |  |  |  | 1.5 µM |  |  |  |  | 
4 | N=C(N)c1ccc(S(=O)(=O)NCc2ccc(OCCCCOc3ccc(CNS(=O)(=O)c4ccc(C(=N)N)cc4)cc3)cc2)cc1 [Example 48, 1,4-Bis-{4-[(4-carbamimidoyl-benzenesulfonylamino)-methyl]-phenoxy}-butane] |  |  |  |  | 12.5 µM |  | 4.2 µM |  |  | 
5 | N=C(N)c1ccc(S(=O)(=O)NCc2ccc(OCCOc3ccc(CNS(=O)(=O)c4ccc(C(=N)N)cc4)cc3)cc2)cc1 [Example 52, 1,2-Bis-{4-[(4-carbamimidoyl-benzenesulfonylamino)-methyl]-phenoxy}-ethane] |  |  |  |  | 1.5 µM |  |  |  |  | 
6 | N=C(N)c1ccc(S(=O)(=O)NCc2cccc(OCCCCCOc3cccc(CNS(=O)(=O)c4ccc(C(=N)N)cc4)c3)c2)cc1 [Example 74, 1,5-Bis-{3-[(4-carbamimidoyl-benzenesulfonylamino)-methyl]-phenoxy}-pentane] | > 100 µM | > 100 µM | > 100 µM | 3.7 µM |  | 40 µM | 1.4 µM | > 100 µM | 9 µM | 16 µM
7 | N=C(N)c1cccc(S(=O)(=O)NCc2cccc(OCCCCCOc3cccc(CNS(=O)(=O)c4cccc(C(=N)N)c4)c3)c2)c1 [Example 75, 1,5-Bis-{3[-(3-carbamimidoyl-benzenesulfonylamino)-methyl]-phenoxy}-pentane] | > 100 µM | > 100 µM | > 100 µM | > 100 µM |  | 6 µM | 3 µM | > 100 µM | 2.9 µM | > 100 µM
8 | N=C(N)c1ccc2[nH]c(CC(=O)NCc3ccc(CNCCNCc4ccc(CNC(=O)Cc5nc6cc(C(=N)N)ccc6[nH]5)cc4)cc3)nc2c1 [Example 119] |  |  |  |  | 0.002 µM |  |  |  |  | 
